{"source": "patent US20050191315A1", "about": "(priority 2002, published 2005)", "assay_type_in_all_cases": "cell-based, human", "key": {"[1]": {"system": "SEB transcytosis across T-84 cell monolayers"}, "[2]": {"system": "SEA transcytosis across T-84 cell monolayers"}, "[3]": {"system": "TSST-1 transcytosis across T-84 cell monolayers"}, "[4]": {"system": "SEE transcytosis across T-84 cell monolayers"}}, "data": [{"sequence": "KKKVTAQELD [SEB 152-161]", "values": [{"measurement": "movement of SEB across the monolayers reduced by", "setting": "[1]", "result": 85, "unit": "%"}, {"measurement": "transcytosis of SEA reduced", "setting": "[2]", "result": 73, "unit": "%"}, {"measurement": "transcytosis of TSST-1 reduced", "setting": "[3]", "result": 59, "unit": "%"}, {"measurement": "transcytosis of SEE reduced", "setting": "[4]", "result": 68, "unit": "%"}]}]}
